In PubChem BioAssay (NCI):
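Five compound concentrations were applied to cells in 96-well plates for 48 hours; endpoints were derived by simple linear interpolation of the resulting dose-response curve. GI50 = concentration required for 50% inhibition of growth. TGI: concentration producing complete growth inhibition.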

Tests used:
Assay in all cases: NCI anticancer screen, dose series, 48 h
[1] = system: NCI-H460 lung
[2] = system: CCRF-CEM leukemia
[3] = system: NCI-H23 lung
[4] = system: PC-3 prostate
[5] = system: BT-549 breast
[6] = system: HCT-116 colon
[7] = system: SK-MEL-28 melanoma
[8] = system: MALME-3M melanoma
[9] = system: MDA-MB-435
[10] = system: UACC-257 melanoma
[11] = system: HS 578T breast
[12] = system: LOX IMVI melanoma
[13] = system: ACHN renal
[14] = system: SR leukemia
[15] = system: MOLT-4 leukemia
[16] = system: A498 renal
[17] = system: NCI-H522 lung
[18] = system: MDA-MB-468 breast
[19] = system: HCT-15 colon
[20] = system: RXF 393 renal
[21] = system: A549 NSCLC
[22] = system: NCI-H226 lung
[23] = system: HT29 colon
[24] = system: DU-145 prostate
[25] = system: HOP-92 NSCLC
[26] = system: T-47D breast
[27] = system: CAKI-1 renal
[28] = system: SF-539 CNS
[29] = system: IGROV1 ovarian
[30] = system: OVCAR-5 ovarian
[31] = system: SNB-75 CNS
[32] = system: UACC-62 melanoma
[33] = system: HCC-2998 colon
[34] = system: SK-OV-3 ovarian
[35] = system: MCF7 breast
[36] = system: COLO 205 colon
[37] = system: HOP-62 NSCLC
[38] = system: SNB-19 CNS
[39] = system: EKVX NSCLC
[40] = system: M14 melanoma
[41] = system: 786-0 renal
[42] = system: OVCAR-4 ovarian
[43] = system: SK-MEL-2 melanoma
[44] = system: U251 CNS
[45] = system: KM12 colon
[46] = system: OVCAR-3 ovarian
[47] = system: SW-620 colon
[48] = system: SF-295 CNS
[49] = system: SF-268 CNS
[50] = system: SN12C renal
[51] = system: MDA-MB-231 breast
[52] = system: OVCAR-8 ovarian
[53] = system: K-562 leukemia
[54] = system: HL-60(TB) leukemia
[55] = system: UO-31 renal
[56] = system: RPMI-8226 leukemia
[57] = system: TK-10 renal
[58] = system: SK-MEL-5 melanoma

## O=C(O)c1ccc(-c2ccc(/C=N/NC(=O)c3[nH]c4ccc(Br)cc4c3-c3ccccc3)o2)cc1
[1]
  GI50: 21.3 µM
  TGI: 72.8 µM
[2]
  GI50: 19.3 µM
  TGI: > 100 µM
[3]
  GI50: 34.1 µM
  TGI: > 100 µM
[4]
  GI50: 25.1 µM
  TGI: > 100 µM
[5]
  GI50: 20.1 µM
  TGI: 51.7 µM
[6]
  GI50: 27.7 µM
  TGI: > 100 µM
[7]
  GI50: 15.8 µM
  TGI: > 100 µM
[8]
  GI50: 19.1 µM
  TGI: > 100 µM
[9]
  GI50: 12.5 µM
  TGI: 41.1 µM
[10]
  GI50: 24.5 µM
  TGI: > 100 µM
[11]
  GI50: 3.87 µM
  TGI: 72 µM
[12]
  GI50: 20 µM
  TGI: > 100 µM
[13]
  GI50: 29.3 µM
  TGI: > 100 µM
[14]
  GI50: 11.8 µM
  TGI: 45.6 µM
[15]
  GI50: 20.3 µM
  TGI: 96.6 µM
[16]
  GI50: 23.6 µM
  TGI: 85.7 µM
[17]
  GI50: 7.64 µM
  TGI: 34.4 µM
[18]
  GI50: 19.5 µM
  TGI: 79.6 µM
[19]
  GI50: 18.6 µM
  TGI: > 100 µM
[20]
  GI50: 11.3 µM
  TGI: 95.1 µM
[21]
  GI50: 32.3 µM
  TGI: > 100 µM
[22]
  GI50: 34.5 µM
  TGI: > 100 µM
[23]
  GI50: 21.9 µM
  TGI: 54.7 µM
[24]
  GI50: 36.4 µM
  TGI: > 100 µM
[25]
  GI50: 10.6 µM
  TGI: 42.2 µM
[26]
  GI50: 30.9 µM
  TGI: > 100 µM
[27]
  GI50: 22 µM
  TGI: 98.7 µM
[28]
  GI50: 14.7 µM
  TGI: 36.7 µM
[29]
  GI50: 25.3 µM
  TGI: 86.1 µM
[30]
  GI50: 36.5 µM
  TGI: > 100 µM
[31]
  GI50: 4.02 µM
  TGI: 33.3 µM
[32]
  GI50: 4.98 µM
  TGI: 25.2 µM
[33]
  GI50: 16.1 µM
  TGI: 30.7 µM
[34]
  GI50: 28.3 µM
  TGI: 76.7 µM
[35]
  GI50: 28.3 µM
  TGI: > 100 µM
[36]
  GI50: 26.4 µM
  TGI: 83.8 µM
[37]
  GI50: 29.5 µM
  TGI: > 100 µM
[38]
  GI50: 21.6 µM
  TGI: > 100 µM
[39]
  GI50: 28.8 µM
  TGI: > 100 µM
[40]
  GI50: 29.8 µM
  TGI: > 100 µM
[41]
  GI50: 24.2 µM
  TGI: > 100 µM
[42]
  GI50: 21.1 µM
  TGI: > 100 µM
[43]
  GI50: 14.6 µM
  TGI: 37.3 µM
[44]
  GI50: 20 µM
  TGI: 83.1 µM
[45]
  GI50: 22.4 µM
  TGI: 66.2 µM
[46]
  GI50: 12.2 µM
  TGI: 43.1 µM
[47]
  GI50: 25.4 µM
  TGI: > 100 µM
[48]
  GI50: 20.4 µM
  TGI: 55.8 µM
[49]
  GI50: 20.8 µM
  TGI: > 100 µM
[50]
  GI50: 24.8 µM
  TGI: 80.8 µM
[51]
  GI50: 27.9 µM
  TGI: > 100 µM
[52]
  GI50: 20.7 µM
  TGI: 63.4 µM
[53]
  GI50: 20.8 µM
  TGI: 98.4 µM
[54]
  GI50: 12.4 µM
  TGI: 36.1 µM
[55]
  GI50: 25 µM
  TGI: > 100 µM
[56]
  GI50: 25.9 µM
  TGI: > 100 µM
[57]
  GI50: 38.7 µM
  TGI: > 100 µM
[58]
  GI50: 15.7 µM
  TGI: 33 µM
